From ChEMBL document CHEMBL3045133, “A 2D image-based method for modeling some c-Src tyrosine kinase inhibitors” (Med Chem Res, 2013)

Biological target: Proto-oncogene tyrosine-protein kinase Src (Homo sapiens, UniProt P12931)
Experiment: Inhibition of c-Src kinase (unknown origin)

Sequence of Proto-oncogene tyrosine-protein kinase Src (P12931 2-536 limits assumed): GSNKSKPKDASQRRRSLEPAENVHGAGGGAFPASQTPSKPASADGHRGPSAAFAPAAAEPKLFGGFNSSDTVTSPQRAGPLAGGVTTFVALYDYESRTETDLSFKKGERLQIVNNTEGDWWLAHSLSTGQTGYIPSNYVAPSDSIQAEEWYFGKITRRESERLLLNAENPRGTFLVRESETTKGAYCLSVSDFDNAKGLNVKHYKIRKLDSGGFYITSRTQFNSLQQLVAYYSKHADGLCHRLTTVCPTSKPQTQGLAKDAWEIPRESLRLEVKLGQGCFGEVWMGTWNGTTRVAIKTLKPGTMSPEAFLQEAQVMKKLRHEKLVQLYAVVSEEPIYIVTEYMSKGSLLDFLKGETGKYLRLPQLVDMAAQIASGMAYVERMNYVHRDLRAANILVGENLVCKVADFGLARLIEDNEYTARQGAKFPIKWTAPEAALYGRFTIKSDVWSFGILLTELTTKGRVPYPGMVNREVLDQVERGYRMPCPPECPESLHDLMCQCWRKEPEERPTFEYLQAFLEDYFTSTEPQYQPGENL

IC50: 6.31 µM
SMILES: Cc1ccccc1-c1cn(-c2ccccc2)c2ncnc(N)c12
